Reference: patent US20230200424A1, “COMPOSITIONS COMPRISING CYS-PEPTIDES” (Evonik Operations GmbH, priority 2020, published 2023)
“Also recorded” adds a separate entry of the source. Read-outs that look alike come from different tables or passages of the source. Where a SMILES comes first, the peptide text is derived from it. Bridges are numbered along the chain shown (N, C = ends). Roman numbers before positions name the chains, in order.

Tests used:
[1] = Solubility of (Ala-Cys)2 and its solubilization by addition of cysteine, turbidity at 600 nm; format: physicochemical
Description: Turbid suspensions of 50 mM (Ala-Cys)2 in phosphate buffer at pH=7 were prepared and increasing amounts of cysteine were added. The mixtures were incubated at 37° C. in a microtiter plate (liquid volume per well was 200 μl) and turbidity at 600 nm was measured after 30 minutes. At concentrations of 20 mM of cysteine and higher, (Ala-Cys)2 was fully solubilized and no further reduction of turbidity was measured. Solutions were visually transparent (see FIG. 2).

[2] = pH range between 3 and 9; cited from earlier work
[3] = Stabilization of 25 mM and 50 mM cysteine solutions against precipitation by Cys-dipeptides under oxidizing conditions (H2O2), turbidity at 600 nm; format: physicochemical; details: H2O2 added, after 4.5 hours
Description: (§1) Turbidity caused by precipitation was measured photometrically at 600 nm in a microtiter plate-based assay. Liquid volume per well was 200 μl and measurements were conducted over 24 hours at 37° C. in a microplate reader (Tecan). The plates were not covered with a lid.
(§2) An experiment as described in example 1 was conducted in a microtiter plate. After two hours of incubation at 37° C., 14 μl of a 5 weight % H2O2 solution were added to each well to accelerate oxidation and evaluate stabilization under fully oxidized conditions. […] Turbidity measurements in the microplate reader were continued subsequently. Results are shown in Fehler! Verweisquelle konnte nicht gefunden werden.
To evaluate if the above described stabilization is also possible by addition of other Cys-dipeptides, experiments as described in example 4 were conducted with the exception that reduced cysteine concentrations of 50 mM and 25 mM were used and that the concentrations of added Cys-dipeptides were 0 (=control), 5, 10, 25 and 50 mM. The effect of (Asp-Cys)2, (Cys-Asp)2, (Lys-Cys)2, (Cys-Lys)2, (Ala-Cys)2 and (Pro-Cys)2 was evaluated. All Cys-peptides were able to prevent precipitation from the cysteine solutions after addition of H2O2 Differences in stabilization efficiency were observed between the various Cys-Peptides at cysteine concentrations of 50 mM. The Cys-dipeptides containing lysine residues were the most efficient stabilizers and a molar Cys-peptide to cysteine ratio between 1:2 and 1:5 provided sufficient stability.

[4] = Stabilization of 50 mM cysteine solution against precipitation by reduced and oxidized Cys-dipeptides under oxidizing conditions (H2O2), turbidity at 600 nm; format: physicochemical; details: H2O2 added; for Turbidity at 600 nm: after 4.5 hours
Description: as §1, §2
To evaluate if the above described stabilization is also possible by addition of reduced Cys-dipeptides (=free thiol), the same experimental setup as described in example 4 was chosen. In this case, various concentrations of the reduced dipeptide Cys-Gly and of the oxidized dipeptide (Cys-Gly)2 were added to a 50 mM cysteine solution. Both Cys-peptides were able to prevent precipitation from the cysteine solutions after addition of H2O2.

[5] = Stabilization of a 100 mM cysteine solution against precipitation by (Lys-Cys)2 under oxidizing conditions (H2O2), turbidity; format: physicochemical
Description: as §1, §2
The mixtures were incubated in a microplate for 2 hours at 37° C. and turbidity was measured photometrically. H2O2 was subsequently added to accelerate oxidation and evaluate stability against precipitation under fully oxidized conditions. Turbidity measurement was continued directly after H2O2 addition. With cysteine alone, the solution turned directly and visibly turbid, when H2O2 was added. With increasing amounts of added (Lys-Cys)2, the amount of precipitate measured via turbidity was reduced.

[6] = Precipitation from a 100 mM cysteine solution with added (Lys-Cys)2, turbidity at 600 nm in microtiter plate; format: physicochemical; details: 24 hours
Description: Solutions of substances and dilutions thereof were prepared in 100 mM phosphate buffer, pH=7 in all experiments in all examples. Precipitation could be avoided in a 100 mM solution of cysteine in a 100 mM phosphate buffer at pH=7 by the addition of suitable concentrations of (Lys-Cys)2.
as §1
When 100 mM solutions of cysteine were prepared with 0, 100, 200 or 400 mM (Lys-Cys)2×2 HCl at pH=7, a surprising result was obtained. Precipitation could be seen and measured in the absence of added peptide. […] The precipitates could be observed visually and measured via turbidimetry (see FIG. 1).

[7] = 25 mM cysteine solution, Cys-peptide 5 mM
[8] = 25 mM cysteine solution, Cys-peptide 10 mM
[9] = 25 mM cysteine solution, Cys-peptide 25 mM
[10] = 25 mM cysteine solution, Cys-peptide 50 mM
[11] = 50 mM cysteine solution, Cys-peptide 5 mM
[12] = 50 mM cysteine solution, Cys-peptide 10 mM
[13] = 50 mM cysteine solution, Cys-peptide 25 mM
[14] = 50 mM cysteine solution, Cys-peptide 50 mM

Question: With `C[C@H](N)C(=O)N[C@@H](CSSC[C@H](NC(=O)[C@H](C)N)C(=O)O)C(=O)O` [(Ala-Cys)2] (I: H-Ala-Cys-OH / II: H-Ala-Cys-OH; disulfide I:2-II:2; N-terminus and C-terminus assumed) as the compound, how does the solubility ([1]; 50 mM (Ala-Cys)2 suspension, phosphate buffer pH=7, 37° C., turbidity at 600 nm after 30 minutes, read-out: concentration of cysteine at which 50 mM (Ala-Cys)2 was fully solubilized) read?
Answer: The solubility was at least 20 mM.

Question: And the solubility ([1]; pH=7 and 37° C., read-out: maximum solubility)?
Answer: The solubility was under 50 mM.

Question: With `N[C@@H](CSSC[C@H](N)C(=O)O)C(=O)O` [cystine] as the compound, how does the solubility [2] read?
Answer: The solubility was under 1 mM.

Question: Which “Turbidity at 600 nm” value [3, 7] does the source give for (Asp-Cys)2 here?
Answer: The value was 0.038 AU.

Question: And the “Turbidity at 600 nm” value [3, 8]?
Answer: Its value is 0.039 AU.

Question: And the “Turbidity at 600 nm” value [3, 9]?
Answer: Its value is 0.038 AU.

Question: And the “Turbidity at 600 nm” value [3, 10]?
Answer: Its value is 0.040 AU.

Question: What about the “Turbidity at 600 nm” value [3, 11] of the same compound?
Answer: Its value is 1.453 AU.

Question: And the “Turbidity at 600 nm” value [3, 12]?
Answer: The value was 1.301 AU.

Question: What about the “Turbidity at 600 nm” value [3, 13] of the same compound?
Answer: The value was 0.039 AU.

Question: What about the “Turbidity at 600 nm” value [3, 14] of the same compound?
Answer: Its value is 0.042 AU.

Question: Which “Turbidity at 600 nm” value [3, 7] does the source give for (Cys-Asp)2 here?
Answer: Its value is 0.081 AU.

Question: What about the “Turbidity at 600 nm” value [3, 8] of the same compound?
Answer: Its value is 0.037 AU.

Question: What about the “Turbidity at 600 nm” value [3, 9] of the same compound?
Answer: The value was 0.038 AU.

Question: And the “Turbidity at 600 nm” value [3, 10]?
Answer: The value was 0.040 AU.

Question: What about the “Turbidity at 600 nm” value [3, 11] of the same compound?
Answer: The value was 1.702 AU.

Question: What about the “Turbidity at 600 nm” value [3, 12] of the same compound?
Answer: Its value is 1.523 AU.

Question: What about the “Turbidity at 600 nm” value [3, 13] of the same compound?
Answer: Its value is 0.279 AU.

Question: And the “Turbidity at 600 nm” value [3, 14]?
Answer: Its value is 0.039 AU.

Question: For (Cys-Gly)2, which “Turbidity at 600 nm” value ([4]; Cys-peptide 5 mM) is on record?
Answer: Its value is 1.07 AU.

Question: What about the “Turbidity at 600 nm” value ([4]; Cys-peptide 10 mM) of the same compound?
Answer: The value was 0.07 AU.

Question: And the “Turbidity at 600 nm” value ([4]; Cys-peptide 25 mM)?
Answer: The value was 0.04 AU.

Question: And the “Turbidity at 600 nm” value ([4]; Cys-peptide 50 mM)?
Answer: The value was 0.04 AU.

Question: What about the “peptide concentration at which precipitation was completely suppressed” value [4] of the same compound?
Answer: The value was 25 mM.

Question: Which “Turbidity at 600 nm” value [3, 7] does the source give for (Cys-Lys)2 here?
Answer: Its value is 0.044 AU.

Question: And the “Turbidity at 600 nm” value [3, 8]?
Answer: Its value is 0.050 AU.

Question: What about the “Turbidity at 600 nm” value [3, 9] of the same compound?
Answer: The value was 0.068 AU.

Question: What about the “Turbidity at 600 nm” value [3, 10] of the same compound?
Answer: Its value is 0.084 AU.

Question: What about the “Turbidity at 600 nm” value [3, 11] of the same compound?
Answer: The value was 0.390 AU.

Question: What about the “Turbidity at 600 nm” value [3, 12] of the same compound?
Answer: Its value is 0.092 AU.

Question: What about the “Turbidity at 600 nm” value [3, 13] of the same compound?
Answer: The value was 0.067 AU.

Question: What about the “Turbidity at 600 nm” value [3, 14] of the same compound?
Answer: Its value is 0.077 AU.

Question: For (Lys-Cys)2, which “precipitate after H2O2 addition” value ([5]; 100 mM cysteine with 400 mM (Lys-Cys)2) is on record?
Answer: Its value is “no precipitate was observed; also recorded: remained completely clear”.

Question: And the “turbidity directly after addition of H2O2” value ([5]; 100 mM cysteine with (Lys-Cys)2, 2 hours at 37° C., then H2O2)?
Answer: Its value is “no immediate increase in turbidity was observed”.

Question: And the “turbidity increase after H2O2 addition” value ([5]; 100 mM cysteine, increasing concentrations of (Lys-Cys)2)?
Answer: Its value is “strongly reduced”.

Question: And the “precipitation (visual, turbidimetry)” value ([6]; 100 mM cysteine with 100 mM (Lys-Cys)2, pH=7, 37° C.)?
Answer: Its value is “accelerated precipitation”.

Question: And the “precipitation (visual, turbidimetry)” value ([6]; 100 mM cysteine with 200 mM (Lys-Cys)2, pH=7, 37° C.)?
Answer: Its value is “effectively prevented precipitation”.

Question: What about the “precipitation (visual, turbidimetry)” value ([6]; 100 mM cysteine with 400 mM (Lys-Cys)2, pH=7, 37° C.) of the same compound?
Answer: Its value is “effectively prevented precipitation”.

Question: What about the “Turbidity at 600 nm” value [3, 7] of the same compound?
Answer: The value was 0.039 AU.

Question: What about the “Turbidity at 600 nm” value [3, 8] of the same compound?
Answer: Its value is 0.041 AU.

Question: What about the “Turbidity at 600 nm” value [3, 9] of the same compound?
Answer: The value was 0.042 AU.

Question: What about the “Turbidity at 600 nm” value [3, 10] of the same compound?
Answer: The value was 0.047 AU.

Question: And the “Turbidity at 600 nm” value [3, 11]?
Answer: Its value is 0.946 AU.

Question: And the “Turbidity at 600 nm” value [3, 12]?
Answer: The value was 0.556 AU.

Question: What about the “Turbidity at 600 nm” value [3, 13] of the same compound?
Answer: The value was 0.045 AU.

Question: And the “Turbidity at 600 nm” value [3, 14]?
Answer: The value was 0.047 AU.

Question: With (Pro-Cys)2 as the compound, how does the “Turbidity at 600 nm” value [3, 7] read?
Answer: The value was 0.078 AU.

Question: What about the “Turbidity at 600 nm” value [3, 8] of the same compound?
Answer: Its value is 0.039 AU.

Question: What about the “Turbidity at 600 nm” value [3, 9] of the same compound?
Answer: The value was 0.040 AU.

Question: And the “Turbidity at 600 nm” value [3, 10]?
Answer: The value was 0.042 AU.

Question: And the “Turbidity at 600 nm” value [3, 11]?
Answer: Its value is 1.539 AU.

Question: What about the “Turbidity at 600 nm” value [3, 12] of the same compound?
Answer: The value was 1.379 AU.

Question: What about the “Turbidity at 600 nm” value [3, 13] of the same compound?
Answer: Its value is 0.762 AU.

Question: What about the “Turbidity at 600 nm” value [3, 14] of the same compound?
Answer: Its value is 0.118 AU.

Question: Which “Turbidity at 600 nm” value ([4]; Cys-peptide 5 mM) does the source give for Cys-Gly here?
Answer: Its value is 0.58 AU.

Question: What about the “Turbidity at 600 nm” value ([4]; Cys-peptide 10 mM) of the same compound?
Answer: Its value is 0.37 AU.

Question: And the “Turbidity at 600 nm” value ([4]; Cys-peptide 25 mM)?
Answer: Its value is 0.26 AU.

Question: And the “Turbidity at 600 nm” value ([4]; Cys-peptide 50 mM)?
Answer: Its value is 0.04 AU.

Question: And the “peptide concentration at which precipitation was completely suppressed” value [4]?
Answer: Its value is 50 mM.
